Where no end group is shown, it is not given here. [ ]: non-standard residue; d: D form.
Experiments:
Format in all cases: cell-based
H929 cells = experiment: Detection of apoptosis, annexin V staining and FACS, suspension culture; conditions: H929 cells, 200 μM ZVAD-FMK 30 minutes prior, apoptosis at 24 hours, annexin/PI
Procedure: (§1) FIG. 17 is a graph showing that HYD1 induces apoptosis as a single agent in 8226 and H929 cells cultured in suspension. 8226 and H929 cells were either treated with varying concentrations of HYD1 or vehicle control (equal volume sterile double distilled water) for 24 hours and apoptotic cells were detected by FACS analysis of annexin V positive cells. HYD1 specific apoptosis equals cell death due to peptide minus any apoptosis detected in control cells.
200 μM ZVAD-FMK was added to H929 cells for 30 minutes prior to the addition of either 75 μg/ml HYD1S or 15 μM Melphalan. Apoptosis was measured 24 hours after drug treatment by annexin/PI staining and apoptotic cells were detected by FACS analysis. Three independent experiments were performed and shown is a representative experiment.
Detection of Apoptosis. […] Blood, 1999; 93:1658-1667). The assay was performed in triplicate and 3 independent experiments were performed. Caspase 3 and 8 activity was measured at 6 and 24 hrs post peptide treatment per manufactures' instructions (BD Biosciences, San Jose, Calif.). The caspase assays were performed in triplicate and repeated twice.
(§2) Myeloma cells were plated at a density of 400,000 cells per ml in a 24 well plate. Cells were treated with the indicated dose of the peptide for 24 hours. Following 24 hrs of peptide exposure, apoptotic cells were detected using Annexin V staining and FACS analysis. Ten thousand events were analyzed by flow cytometry (Becton Dickinson, San Jose, Calif.). Experiments were performed in triplicate and repeated twice. Shown is a representative figure.

MM1.S cells = tested on: MM1.S cells
Excerpt: FIGS. 4A-4E are a series of graphs showing that the BMS model protects myeloma MM1.S cells from melphalan (FIG. 4A), mitoxantrone (FIG. 4B), and dexamethasone (FIGS. 4C-4E) induced cell death. SF+A model confers the highest levels of resistance to cell death induced by either mitoxantrone or melphalan.
FIGS. 10A-10E are a series of graphs showing that the BMS model protects MM1.S cells from melphalan (FIG. 10A), mitoxantrone (FIG. 10B), dexamethasone (FIGS. 10C and 10D), and velcade (FIG. 10E) induced cell death.
The CAM-DR phenotype is tested by removing unadhered cells before the addition of drug. […] For this reason, the inventors chose to test for the reversal of drug resistance in adherent cells by using a bone marrow stroma (BMS) model (HS-5 cell line). In the BMS model of drug resistance, cell-cell adhesion is mediated by multiple adhesion moieties and thus the addition of a β1 blocking antibody is not sufficient to block tumor cell adhesion to the BMS cell line. The BMS model system is described in FIGS. 3A-D. These models have facilitated the availability of four discrete hematopoietic tumor populations. The first tumor population (FIG. 3A) is maintained in a traditional suspension culture in RPMI media containing 10% FBS (RM). Conditioned media is prepared by adding fresh RPMI media containing 10% FBS to HS-5 cells which are 75% confluent. After three hours, the media is then collected, centrifuged and stored at −70 for up to one month. This tumor cell culture condition is referred to as CM (FIG. 3B). The third tumor cell population consists of placing HS-5 cells in the bottom chamber and tumor cell in a top chamber that is separated by a membrane allowing for diffusion of soluble factors (see FIG. 3C). This condition is distinct from CM because it considers dynamic soluble interactions between the tumor cell and BMS cells (see FIG. 3D). […] Regardless of the cytotoxic agent used, the levels of drug resistance are greatest for myeloma cells which are adherent to the BMS. […]

[1] = tested on: primary myeloma patient specimens; experiment: Melphalan-induced cell death in primary myeloma patient specimens, FN-adherent vs suspension
Excerpt: It has been reported that β1-integrin mediated adhesion of 8226 cells and K562 cells to FN blocked cell death induced by the alkylating agent melphalan (Damiano J S, et al. Blood. 1999; 93:1658-1667; Hazlehurst L A, et al. Cancer Res. 2003; 63:7900-7906). In order to determine whether the CAM-DR phenotype is a potential mechanism of clinical de novo drug resistance, melphalan-induced cell death was recently measured in primary myeloma patient specimens (See FIG. 2). Plasma cells were identified by either positive Kappa or Lambda staining, and apoptotic myeloma cells were identified by the Tunnel assay. 9 out of 10 patient specimens were protected from melphalan induced cell death when adherent to FN compared to suspension cultures.

prostate tumor cell = experiment: Random haptotaxis (cell migration) on laminin 322 (laminin 5); conditions: scrambled peptide HYDS indicates 100% cell migration
Excerpt: Defining the minimal region of HYD1 necessary to potentiate drug-induced apoptosis in suspension and adherent cultures is of interest. Below is a study to determine the minimal HYD1 sequence required to block prostate tumor cell migration. Similar studies as those outlined below and using the same peptide sequences will be used to determine the minimal amino acid sequence required for potentiation of drug induced apoptosis.
This response to the peptide is independent of disrupting adhesion to laminin 322 (laminin 5) since the cells were grown on a ligand before treatment with the peptide. […] All other alanine-substitution mutants resulted cell migration, i.e., a loss of peptide activity.
Using the negative control scrambled peptide, HYDS (SEQ ID NO:44), to indicate 100% cell migration, several truncated peptides including, ikmviswkg (SEQ ID NO:22), kmviswkg (SEQ ID NO:39), and kikmviswk (SEQ ID NO:37) were effective at blocking cell migration by approximately 50%.

ERK = experiment: Activation of ERK signaling; conditions: for activation of ERK: 10 minutes post-treatment
Procedure: HYD1, when introduced as a soluble ligand, completely blocks random hapotaxis on laminin 322 and enhanced cellular signals are coupled with the loss of cell motility. […] Using this endpoint as an indicator of HYD1 bioactivity, the truncated and alanine-substituted variants of HYD1 were tested for their ability to activate ERK. Activation of ERK at 10 minutes post-treatment was conserved with alanine-substitution only at the N-terminal lysine and C-terminal glycine (FIG. 16A-1). […] Taken together (FIG. 16C-2), the results (FIGS. 16A-1, 16A-2, 16B, 16C-1) indicate that activation of ERK signaling required ikmviswxx (SEQ ID NO:48).

8226 cells = experiment: Detection of apoptosis, annexin V staining and FACS, suspension culture; conditions: 24 hours, annexin V
Procedure: as §1
Detection of Apoptosis. A flow cytometric assay measuring Annexin V/PI staining was used to measure apoptotic cells following 24 hours of peptide exposure as previously described (Damiano J S et al. Blood, 1999; 93:1658-1667). The assay was performed in triplicate and 3 independent experiments were performed. Caspase 3 and 8 activity was measured at 6 and 24 hrs post peptide treatment per manufactures' instructions (BD Biosciences, San Jose, Calif.). The caspase assays were performed in triplicate and repeated twice.
as §2

N[C@@H](Cc1ccc(N(CCCl)CCCl)cc1)C(=O)O [melphalan]
protection from induced cell death by pan caspase inhibitor ZVAD-FMK (H929 cells): blocked the majority | resistance to drug induced cell death conferred by HS-5 stromal layer in the BMS model (MM1.S cells): sufficient to confer resistance | mean percent apoptosis of plasma cells adhered to FN ([1]; 200 μM melphalan, bone marrow aspirates, adhered to FN prior to treatment): 27.7% | mean percent apoptosis of plasma cells in suspension cultures ([1]; 200 μM melphalan, suspension cultures): 55.6% | patient specimens protected from melphalan induced cell death when adherent to FN ([1]; compared to suspension cultures, ten patients): 9 out of 10

O=C1c2c(O)ccc(O)c2C(=O)c2c(NCCNCCO)ccc(NCCNCCO)c21 [mitoxantrone]
resistance to drug induced cell death conferred by HS-5 stromal layer in the BMS model (MM1.S cells): sufficient to confer resistance

CC(C)C[C@H](NC(=O)[C@H](Cc1ccccc1)NC(=O)c1cnccn1)B(O)O [velcade]
resistance to drug induced cell death conferred by HS-5 stromal layer in the BMS model (MM1.S cells): sufficient to confer resistance

ikmviswkg (IKMVISWKG; HYD1 fragment)
blocking cell migration (prostate tumor cell): approximately 50%

iswkg (ISWKG; HYD1 fragment)
activation of ERK (ERK): partial activation of ERK

kikmv (KIKMV; HYD1 fragment)
ERK signal of N-terminal region compared with C-terminal region (ERK): stronger signal than iswkg | activation of ERK (ERK): partial activation of ERK

kikmviswk ([dK][dI][dK][dM][dV][dI][dS][dW][dK]) [HYD1-g, C-terminus glycine deleted]
potency in inducing 8226 cell death compared to HYD1 (8226 cells): increased potency | potency in inducing 8226 cell death compared to HYD1 (8226 cells; listed as kikmviswk): greater potency | blocking cell migration (prostate tumor cell): approximately 50%

kmviswkg (KMVISWKG; HYD1 fragment)
blocking cell migration (prostate tumor cell): approximately 50%
